For data set [1] the following is noted: dog, in vivo, 1 mg/kg.
For a further data set, the target named is α1β2γ2 GABAA receptors (Homo sapiens, UniProt P14867+P47870). The data set is described as follows: Synchropatch electrophysiology, potentiation of synaptic GABAA receptors. It counts as cell-based. As to conditions: for Emax: α1β2γ2 Synaptic receptors, Synchropatch electrophysiology, read-out: Emax - efficacy: % of potentiation.
The target in another data set is α4β3δ GABAA receptors (Homo sapiens, UniProt P28472+P48169). The data set is described as follows: Synchropatch electrophysiology, potentiation of extra synaptic GABAA receptors. The format is cell-based.
For the next data set, the system named is Forced swim test. The experiment in a line: Forced swim test - Depression. It counts as in vivo, rodent. As to conditions: preclinical animal model.
For data set [2] the following is noted: humans, cited from earlier work.
For data set [3] the following is noted: humans, cited from earlier work. This is another data set of the same source.
The conditions of data set [4]: humans, cited from earlier work. This is another data set of the same source.
The mark [5] stands for this setting: 30 mg, day 7 MAD (MTD), morning dosing.

SMILES strings stand for the structures. Like-named read-outs stand apart in the source and are kept apart here.

Sequence of α1β2γ2 GABAA receptors (P14867 28-456): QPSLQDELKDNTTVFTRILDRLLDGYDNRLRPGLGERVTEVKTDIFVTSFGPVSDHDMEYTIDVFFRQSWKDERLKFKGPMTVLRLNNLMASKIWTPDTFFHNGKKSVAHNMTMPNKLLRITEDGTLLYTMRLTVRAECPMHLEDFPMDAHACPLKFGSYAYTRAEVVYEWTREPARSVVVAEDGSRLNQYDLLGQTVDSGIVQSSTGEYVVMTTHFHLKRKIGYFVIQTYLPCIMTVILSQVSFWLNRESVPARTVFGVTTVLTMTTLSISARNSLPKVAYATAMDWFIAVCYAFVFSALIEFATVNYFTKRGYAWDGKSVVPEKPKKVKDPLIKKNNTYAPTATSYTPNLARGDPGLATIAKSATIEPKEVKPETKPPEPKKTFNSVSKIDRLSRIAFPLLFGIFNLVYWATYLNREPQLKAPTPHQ
Sequence of α1β2γ2 GABAA receptors (P47870 25-512 limits assumed): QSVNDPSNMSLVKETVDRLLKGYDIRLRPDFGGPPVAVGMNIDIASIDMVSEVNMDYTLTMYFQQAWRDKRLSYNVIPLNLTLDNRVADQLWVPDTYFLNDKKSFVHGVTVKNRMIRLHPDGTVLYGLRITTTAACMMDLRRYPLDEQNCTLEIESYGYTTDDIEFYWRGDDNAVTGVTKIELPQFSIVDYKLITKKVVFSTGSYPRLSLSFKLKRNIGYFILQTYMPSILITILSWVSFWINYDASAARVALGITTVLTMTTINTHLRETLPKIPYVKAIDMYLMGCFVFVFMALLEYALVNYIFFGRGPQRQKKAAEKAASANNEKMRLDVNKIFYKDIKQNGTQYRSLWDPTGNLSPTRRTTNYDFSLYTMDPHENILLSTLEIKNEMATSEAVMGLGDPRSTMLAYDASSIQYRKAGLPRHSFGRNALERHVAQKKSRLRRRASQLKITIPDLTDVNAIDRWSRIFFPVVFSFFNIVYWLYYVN
Sequence of α1β2γ2 GABAA receptors (P18507 40-475 partner): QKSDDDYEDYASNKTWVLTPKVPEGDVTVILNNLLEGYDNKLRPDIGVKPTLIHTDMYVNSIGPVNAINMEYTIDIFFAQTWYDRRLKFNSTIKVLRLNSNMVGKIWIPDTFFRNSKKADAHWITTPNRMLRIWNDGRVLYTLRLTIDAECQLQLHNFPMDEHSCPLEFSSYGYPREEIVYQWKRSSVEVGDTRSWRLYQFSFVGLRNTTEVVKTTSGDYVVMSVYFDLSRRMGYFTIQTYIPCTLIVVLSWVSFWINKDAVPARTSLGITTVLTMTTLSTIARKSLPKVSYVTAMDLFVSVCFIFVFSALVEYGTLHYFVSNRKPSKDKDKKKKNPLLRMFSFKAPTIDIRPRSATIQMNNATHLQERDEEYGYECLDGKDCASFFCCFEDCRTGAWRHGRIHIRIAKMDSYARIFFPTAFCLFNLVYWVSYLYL
Sequence of α4β3δ GABAA receptors (P48169 36-554): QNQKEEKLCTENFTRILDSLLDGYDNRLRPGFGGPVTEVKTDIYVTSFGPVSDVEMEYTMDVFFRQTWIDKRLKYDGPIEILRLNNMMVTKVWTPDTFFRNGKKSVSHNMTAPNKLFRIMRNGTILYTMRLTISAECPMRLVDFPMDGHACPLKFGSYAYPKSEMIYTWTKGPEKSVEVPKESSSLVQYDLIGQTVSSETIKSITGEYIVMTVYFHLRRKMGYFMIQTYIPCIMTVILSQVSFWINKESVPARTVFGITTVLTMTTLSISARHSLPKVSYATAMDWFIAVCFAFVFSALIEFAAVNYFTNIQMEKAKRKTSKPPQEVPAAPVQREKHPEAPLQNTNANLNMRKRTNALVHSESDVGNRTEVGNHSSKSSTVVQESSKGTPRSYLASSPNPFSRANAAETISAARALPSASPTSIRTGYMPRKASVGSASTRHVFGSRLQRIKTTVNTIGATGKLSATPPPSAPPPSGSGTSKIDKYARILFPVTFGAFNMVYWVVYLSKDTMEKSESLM
Sequence of α4β3δ GABAA receptors (P28472 26-473): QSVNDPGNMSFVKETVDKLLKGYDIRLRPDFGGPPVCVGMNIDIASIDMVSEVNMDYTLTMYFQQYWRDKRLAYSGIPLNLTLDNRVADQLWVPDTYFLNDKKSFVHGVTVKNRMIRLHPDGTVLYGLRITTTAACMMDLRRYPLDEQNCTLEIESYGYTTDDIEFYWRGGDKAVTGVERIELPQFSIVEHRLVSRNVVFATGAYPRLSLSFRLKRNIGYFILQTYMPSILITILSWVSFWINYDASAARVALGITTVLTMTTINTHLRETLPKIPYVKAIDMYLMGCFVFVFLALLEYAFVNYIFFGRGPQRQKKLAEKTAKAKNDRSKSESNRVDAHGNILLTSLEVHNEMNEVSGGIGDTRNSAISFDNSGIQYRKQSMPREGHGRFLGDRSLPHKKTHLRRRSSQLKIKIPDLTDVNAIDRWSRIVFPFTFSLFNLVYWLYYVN
Sequence of α4β3δ GABAA receptors (O14764 25-452 partner): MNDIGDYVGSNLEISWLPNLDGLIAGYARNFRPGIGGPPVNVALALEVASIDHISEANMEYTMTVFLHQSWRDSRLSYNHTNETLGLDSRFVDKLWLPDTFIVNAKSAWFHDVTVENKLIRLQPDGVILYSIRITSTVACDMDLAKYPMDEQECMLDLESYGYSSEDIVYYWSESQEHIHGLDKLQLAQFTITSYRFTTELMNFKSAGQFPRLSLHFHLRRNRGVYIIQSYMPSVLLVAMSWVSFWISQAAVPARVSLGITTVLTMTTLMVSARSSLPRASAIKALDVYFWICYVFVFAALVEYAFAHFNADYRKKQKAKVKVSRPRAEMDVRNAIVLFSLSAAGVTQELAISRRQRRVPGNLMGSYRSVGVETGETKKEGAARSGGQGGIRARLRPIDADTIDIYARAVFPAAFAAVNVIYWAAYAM

For orientation: Cmax means the peak of the concentration-time curve. A word on the Tmax: it is the time at which the peak concentration occurs. For `C[C@@]1(O)CC[C@@]2(C)[C@@H](CC[C@@H]3[C@@H]2CC[C@]2(C)[C@@H](C(=O)Cn4cc(C#N)cn4)CC[C@@H]32)C1` [CV-10155 (30% HPbCD)], in data set [1] (iv), the Cmax is given as 1732 ng/mL and the T½ came to 13.93 h. Further, in data set [1] (po), the Cmax is listed as 510 ng/mL, the Tmax turned out to be 0.75 h and the T½ is 13.62 h.
As to `C[C@@]1(O)CC[C@@]2(C)[C@@H](CC[C@@H]3[C@@H]2CC[C@]2(C)[C@@H](C(=O)Cn4cc(C#N)cn4)CC[C@@H]32)C1` [CV-10155 (Labrosol)], in data set [1] (po), the Cmax was 266 ng/mL, the Tmax is 0.625 h and the T½ is 18.93 h.
The EC50 is the midpoint of the concentration-response curve. For orientation: Emax means the size of the effect at its maximum, as opposed to the concentration needed. For `CC(=O)[C@H]1CC[C@H]2[C@@H]3CC[C@H]4C[C@](C)(O)CC[C@]4(C)[C@H]3CC[C@]12C` [Ganaxolone, ganaxolone], at α1β2γ2 GABAA receptors, the EC50 was 90 nM and the Emax came to 745%. Further, the EC50 at α4β3δ GABAA receptors is 213 nM.
What is called AUC(0-inf) is total exposure, with the tail of the curve extrapolated. As for `C[C@@]1(O)CC[C@H]2[C@H](CC[C@@H]3[C@@H]2CC[C@]2(C)[C@@H](C(=O)Cn4cc(C#N)cn4)CC[C@@H]32)C1` [Sage-217], on α1β2γ2 GABAA receptors, the EC50 was determined as 189 nM and the maximal effect (Emax) is 1000%. In addition, at α4β3δ GABAA receptors, the concentration for a half-maximal effect (EC50) amounted to 148 nM. Also, the “Forced swim test - Depression: doses tested, * = significantly efficacious dose” value with Forced swim test is 1 - 3* mg/kg. Moreover, in data set [2] (20 mg (n-188)), the “Any adverse event, %” value was 50.0%; the “Diarrhea, %” value was 5.9%; the “Dizziness, %” value is 7.4%; the “Fatigue, %” value was 1.6%. Also, in data set [2] (20 mg (n-188)), the “Headache, %” value is reported as 11.2%; the “Nausea, %” value is 5.3%; the “Sedation, %” value is 5.9%; the “Somnolence, %” value is 5.9%. In data set [2] (30 mg (n-192)), the “Any adverse event, %” value is 54.2%; the “Diarrhea, %” value is listed as 6.3%; the “Dizziness, %” value was 5.7%; the “Fatigue, %” value was 6.8%. Also, in data set [2] (30 mg (n-192)), the “Headache, %” value is on record as 6.3%; the “Nausea, %” value is 3.6%; the “Sedation, %” value is given as 4.7%; the “Somnolence, %” value was 6.8%. Besides, in data set [3] (30 mg daily in the evening in a fed state), the “ratio of Cmax/trough on day 7” value is listed as 5.88. In addition, in data set [3] (setting [5]), the AUC0_inf was 833.2 h*ng/m1, the Cmax was 115.2 ng/mL, the Cmin is 12.46 ng/mL and the “Ratio (Cmax/Cmin)” value is recorded as 9.24. In addition, in data set [3] (setting [5]), the “T1/2” value was 15.27 h and the time to peak (Tmax) is 1 h. For the same molecule, the “MTD, multiple ascending dose (MAD)” value in data set [3] (morning dosing) is “SAGE-217 30mg”. Moreover, in data set [4] (55 mg SAD MTD), the AUC(0-inf) was 1633 ng·h/mL, the Cmax is 149.9 ng/mL, the T1/2 was 17.02 h and the Tmax is 1.24 h. Moreover, the “MTD, single ascending dose (SAD)” value in data set [4] is on record as “SAGE-217 55 mg SAD MTD”.

The values above are taken from patent US20220296613A1, “FOOD-INDEPENDENT DOSING OF CV-10155 TO TREAT GABAA DISORDERS” (priority 2021, published 2022).
